Measured values reported in paper PMC2990348 (Journal of medicinal chemistry, 2010).

Test system: poliovirus
Format: cell-based

`Cc1ncnc2c1ncn2[C@@H]1O[C@H](CO)[C@@H](O)[C@H]1O` [Compound 2, 6-methyl-9-β-D-ribofuranosylpurine, reference compound] was tested, and the “Frequency of viral mutagenesis compared to ribavirin” value was “neither 6 nor 2 increased the frequency of viral mutagenesis”.
In the case of `Cc1ncnc2c1ccn2[C@@H]1O[C@H](CO)[C@@H](O)[C@H]1O` [Compound 6, 4-Methyl-7-β-D-ribofuranosylpyrrolo[2,3-d]pyrimidine], the “Frequency of viral mutagenesis compared to ribavirin” value is reported as “neither 6 nor 2 increased the frequency of viral mutagenesis”.
